The text below walks through data of ChEMBL document CHEMBL4406817, “Cell-active carbazole derivatives as inhibitors of the zika virus protease” (Eur J Med Chem, 2019).

pEC50, pIC50, pKi: −log10 of the molar value. The source made the active and inactive calls. The calls are words filed in the database; no cut-off is given here. Some results are limits rather than exact numbers.

Data set [1] addresses T1, Nonstructural protein 3 (Zika virus, UniProt A0A024AXB9). Put plainly: Inhibition of N-terminal unlinked Zika virus NS2B (45 to 96 residues) - NS3 (1 to 177 residues) protease domain expressed in Escherichia coli Bl21(DE3) using Bz-nKRR-AMC as substrate preincubated for 15 mins followed by substrate addition and measured by fluorescence based assay.
Data set [2] is described as follows: Selectivity index, ratio of CC50 for cytotoxicity against human HuH7 cells to EC50 for antiviral activity against H/PF/2013 Zika virus infected in human HuH7 cells. It counts as toxicity, cell-based. The conditions noted are these: for selectivity ratio: HuH7 cells, read-out: Ratio CC50/EC50.
For data set [3], the system named is Zika virus. The data set can be described thus: Antiviral activity against Zika virus H/PF/2013 infected in human HuH7 cells assessed as reduction in viral titer incubated for 24 hrs by plague assay. As to conditions: for pEC50: Zika virus, H/PF/2013, Huh-7, 24 h, read-out: EC50. It counts as functional, organism-based.
The nature of data set [4]: Cytotoxicity against human HuH7 cells assessed as reduction in cell viability incubated for 48 hrs by cellTiter-Glo assay. It counts as cell-based, Huh-7. In general terms: Cellular ATP, detected with luciferase, serves as a proxy for viable cell number.
Data set [5] in a line: Selectivity index, ratio of EC50 of antiviral activity against Zika virus infected in human HuH7 cells to IC50 of inhibition of N-terminal unlinked Zika virus NS2B (45 to 96 residues) - NS3 (1 to 177 residues) protease domain expressed in Escherichia coli Bl21(DE3). It counts as toxicity.
For data set [6], the target named is T1, Nonstructural protein 3. The data set can be described thus: Inhibition of N-terminal His6-tagged Zika virus NS2B (45 to 96 residues) - NS3 (1 to 177 residues) protease domain expressed in Escherichia coli Bl21(DE3) using Bz-nKRR-AMC as substrate preincubated for 30 mins in presence of bZipro and measured for 60 sec over 10 mins by fluorescence based assay.

For data set [7], the target named is T1, Nonstructural protein 3. Put plainly: Inhibition of N-terminal linked Zika virus NS2B (45 to 96 residues) - NS3 (1 to 177 residues) protease domain expressed in Escherichia coli Bl21(DE3) using Bz-nKRR-AMC as substrate preincubated for 15 mins followed by substrate addition and measured by fluorescence based assay.
Data set [8] can be described thus: Cytotoxicity against human A549 cells assessed as reduction in cell viability incubated for 42 hrs by WST-8 assay. It counts as cell-based. (In general: Tetrazolium assays rely on reduction of a dye to a coloured formazan, in cell work by metabolically active cells.)
A short description of data set [9]: Selectivity index, ratio of EC50 of antiviral activity against Zika virus infected in human A549 cells to IC50 of inhibition of N-terminal His6-tagged Zika virus NS2B (49 to 95 residues) - NS3 (1 to 185 residues) protease domain expressed in Escherichia coli Bl21(DE3). It counts as toxicity.
Data set [10] has as its target T1, Nonstructural protein 3. The data set can be described thus: Inhibition of N-terminal His-tagged Zika virus NS2B (49 to 95 residues) - NS3 (1 to 185 residues) protease domain expressed in Escherichia coli Bl21(DE3) using TAMRA-RRRRSAG-GXL570 as substrate preincubated for 30 mins followed by substrate addition measured after 1 hr by fluorescence based assay.
The target in data set [11] is Nonstructural protein 3 (Zika virus) (UniProt A0A024AXB9). The data set can be described thus: Non-competitive inhibition of N-terminal unlinked Zika virus NS2B (45 to 96 residues) - NS3 (1 to 177 residues) protease domain expressed in Escherichia coli Bl21(DE3) using Bz-nKRR-AMC as substrate preincubated for 30 mins followed by substrate addition and measured for every 60 sec over 12 mins by fluorescence based Lineweaver-burk plot analysis.

The target of data set [12] is T1, Nonstructural protein 3. Put plainly: Inhibition of N-terminal His6-tagged Zika virus NS2B (46 to 99 residues) - NS3 (1 to 187 residues) protease domain expressed in Rosetta2-(DE3) using Boc-Gly-Arg-Arg-AMC as substrate preincubated for 10 mins followed by substrate addition and measured for 6 mins by fluorescence based assay.
Data set [13] has as its target T1, Nonstructural protein 3. The data set can be described thus: Inhibition of N-terminal His-tagged Zika virus NS2B (46 to 99 residues) - NS3 (1 to 187 residues) protease domain expressed in Rosetta2-(DE3) assessed as inhibitory constant using Boc-Gly-Arg-Arg-AMC as substrate and measured for 10 mins by fluorescence based assay.
The test system of data set [14] is Zika virus. Put plainly: Antiviral activity against Zika virus. It counts as functional, organism-based.
Data set [15] addresses T1, Nonstructural protein 3. The data set can be described thus: Inhibition of N-terminal His6-tagged Zika virus NS2B (49 to 95 residues) - NS3 (1 to 170 residues) protease domain expressed in Escherichia coli Bl21(DE3) using Bz-Nle-Lys-Lys-Arg-AMC as substrate preincubated for 10 mins followed by substrate addition measured after 10 mins by fluorescence based assay.

T1 sequence (A0A024AXB9 whole entry, the tested form may be a part): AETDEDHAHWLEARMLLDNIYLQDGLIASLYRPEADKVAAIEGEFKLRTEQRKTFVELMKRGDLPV
Chain of Nonstructural protein 3 (Zika virus) (A0A024AXB9 as listed by the source): as the sequence (A0A024AXB9 whole entry, the tested form may be a part) above

In general, pIC50 refers to −log10 of the IC50, conventionally taken in molar units. The pEC50 is the EC50 on a negative log10 scale, so that one unit is a factor of ten. The CC50 is the concentration giving 50% cytotoxicity. For `COc1cccc(Cn2c3ccc(-c4cccc(C#N)c4)cc3c3cc(-c4cccc(C(=N)N)c4)ccc32)c1`, at Nonstructural protein 3 [1], the pIC50 was 5.72. In data set [2], the selectivity ratio came to 2.8. Besides, the negative logarithm of the EC50 (pEC50) in the data set on Zika virus [3] was 5.71. Further, the CC50 at 48 h in data set [4] turned out to be 3.3 µM.

On Nonstructural protein 3 [1], `COc1cccc(S(=O)(=O)n2c3ccc(Br)cc3c3cc(-c4cccc(C(=N)N)c4)ccc32)c1` gave a pIC50 of 5.09. For the same compound, in data set [2], the “Ratio CC50/EC50” value is listed as “Not Active”. The EC50 entry in the data set with Zika virus [3] is on record as “Not Active”. The CC50 at 48 h in [4] turned out to be 5.22 µM.

Consider `COc1cccc(Cn2c3ccc(Br)cc3c3cc(-c4cccc(C(=N)N)c4)ccc32)c1`, for which the pIC50 against Nonstructural protein 3 [1] is 5.39. Also, the selectivity ratio in data set [2] was determined as 2.3. The pEC50 in the data set with Zika virus [3] is 5.64. In addition, the CC50 at 48 h in [4] was found to be 5.3 µM.

Regarding `Cn1c2ccc(Br)cc2c2cc(-c3cccc(C(=N)N)c3)ccc21`, at Nonstructural protein 3 [1], the negative logarithm of the IC50 (pIC50) was 4.86. Moreover, in [2], the selectivity ratio came to 5.42. In addition, in the data set on Zika virus [3], the pEC50 was 5.87. In addition, the CC50 at 48 h in [4] stood at 6.57 µM.

The compound `N=C(N)c1cccc(Cn2c3ccc(Br)cc3c3cc(Br)ccc32)c1` had a pIC50 against Nonstructural protein 3 [1] of 4.59. Also, the selectivity ratio in data set [2] was 2.51. Also, in the data set with Zika virus [3], the pEC50 was 5.29. Further, the CC50 at 48 h in data set [4] was found to be 12.8 µM.

Consider `COc1cccc(S(=O)(=O)n2c3ccc(-c4cccc(C#N)c4)cc3c3cc(-c4cccc(C(=N)N)c4)ccc32)c1`, for which the pIC50 at Nonstructural protein 3 [1] is 6.09. Also, in data set [2], the selectivity ratio stood at 2.37. For the same compound, the Selectivity Index in data set [5] was 1 to 10. The pEC50 with Zika virus [3] is 4.80. Besides, the CC50 at 48 h in data set [4] stood at 37.9 µM.

With `COc1ccc(S(=O)(=O)n2nc(OC(=O)c3cccc(-c4ccccc4Cl)c3)cc2N)cc1`, the pIC50 at Nonstructural protein 3 [6] is 7.00.

On Nonstructural protein 3 [7], `N=C(N)c1cccc(NC(=O)Nc2cccc(C(=N)N)c2)c1` [AMICARBALIDE] gave a pIC50 of 4.32.

On to `O=C1C=C/C(=N/Nc2ccc([N+](=O)[O-])cc2Cl)C=C1C(=O)Nc1cccc(Cl)c1`, for which, in [8], the CC50 at 42 h amounted to 48.8 µM. Further, the “Selectivity Index” value in data set [9] came to 48. The compound also showed a pIC50 at Nonstructural protein 3 [10] of 6.42.

In the case of `N#Cc1cccc(-c2ccc3c(c2)c2cc(-c4cccc(C#N)c4)ccc2n3Cc2cccc(C(=N)N)c2)c1`, the pIC50 on Nonstructural protein 3 [1] is 4.83. Further, the EC50 result in the data set with Zika virus [3] is reported as “Not Active”. The CC50 at 48 h in data set [4] turned out to be 7.48 µM.

`N#Cc1cccc(-c2ccc3c(c2)c2cc(-c4cccc(C#N)c4)ccc2n3S(=O)(=O)c2cccc(C(=N)N)c2)c1` had a pIC50 against Nonstructural protein 3 [1] of 5.46. Besides, the EC50 entry in the data set with Zika virus [3] is “Not Active”. Further, the half-maximal cytotoxic concentration (CC50) at 48 h in data set [4] came out at 3.35 µM.

Regarding `N=C(N)c1cccc(S(=O)(=O)n2c3ccc(Br)cc3c3cc(Br)ccc32)c1`, the negative-log IC50 (pIC50) against Nonstructural protein 3 [1] was 4.85. The selectivity ratio in data set [2] was 4.14. Also, in the data set with Zika virus [3], the pEC50 was 5.49. Moreover, the CC50 at 48 h in data set [4] is 6.58 µM.

`N=C(N)c1cccc(-c2ccc3c(c2)c2cc(Br)ccc2n3S(=O)(=O)c2cccc(C(=N)N)c2)c1` had a pIC50 on Nonstructural protein 3 [1] of 5.04. Moreover, the selectivity ratio in [2] amounted to 4.2. Also, the Selectivity Index in data set [5] fell in the range of 1 to 10. The pEC50 in the data set with Zika virus [3] is 5.23. For the same compound, the CC50 at 48 h in data set [4] was 35.7 µM.

Regarding `Cn1c2ccc(-c3cccc(C(=N)N)c3)cc2c2cc(-c3cccc(C(=N)N)c3)ccc21`, the values for the pIC50 against Nonstructural protein 3 [1] and on Nonstructural protein 3 [7] were 6.28 and 5.44, respectively. In addition, in data set [11], the inhibition entry is “Active”. The selectivity ratio in data set [2] was found to be 38. In addition, the “Selectivity Index” value in [5] came to 3. Also, in the data set with Zika virus [3], the pEC50 is 5.90. Moreover, the half-maximal cytotoxic concentration (CC50) at 48 h in data set [4] was found to be 47.5 µM.

As usually defined, the pKi is the Ki on a negative log10 scale, so that one unit is a factor of ten. For the compound `COc1ccc(Cl)c2sc(NC(=O)c3ccccc3NS(=O)(=O)c3ccc(C)cc3)nc12`, the pIC50 against Nonstructural protein 3 [12] was 5.39. The pKi at Nonstructural protein 3 [13] was 5.05.

As to `N=C(N)c1cccc(-c2cccc(-c3cccc(C(=N)N)c3)c2)c1`, the pIC50 against Nonstructural protein 3 [1] is 4.42; against Nonstructural protein 3 [7] it was 3.98.

On to `Cn1c2ccc(-c3cccc(C#N)c3)cc2c2cc(-c3cccc(C(=N)N)c3)ccc21`, for which the pIC50 at Nonstructural protein 3 [1] was 5.77. Also, the EC50 entry in the data set with Zika virus [3] is “Not Active”. Also, the CC50 at 48 h in data set [4] turned out to be 6.25 µM.

With `COc1cccc(Cn2c3ccc(-c4cccc(C(=N)N)c4)cc3c3cc(-c4cccc(C(=N)N)c4)ccc32)c1`, the pIC50 against Nonstructural protein 3 [1] is 5.76. Besides, the selectivity ratio in data set [2] came out at 3.4. For the same compound, the Selectivity Index in [5] is 1 to 10. Moreover, the pEC50 in the data set with Zika virus [3] is 5.20. The CC50 at 48 h in data set [4] was 22.7 µM.

Take `COc1cccc(S(=O)(=O)n2c3ccc(-c4cccc(C(=N)N)c4)cc3c3cc(-c4cccc(C(=N)N)c4)ccc32)c1`: the pIC50 on Nonstructural protein 3 [1] was 6.00. In data set [2], the selectivity ratio is above 4. The Selectivity Index in data set [5] fell in the range of 1 to 10. Further, the pEC50 in the data set on Zika virus [3] is 4.62. For the same compound, the CC50 at 48 h in data set [4] is above 100 µM.

In the data set with Zika virus [14], `CO[C@@H]1[C@@H](OC(N)=O)[C@@H](O)[C@H](Oc2ccc3c(O)c(NC(=O)c4ccc(O)c(CC=C(C)C)c4)c(=O)oc3c2C)OC1(C)C` [NOVOBIOCIN] showed a negative-log EC50 (pEC50) of 4.21.

`N=C(N)c1cccc(-c2ccc3ccc(-c4cccc(C(=N)N)c4)cc3c2)c1`: the pIC50 on Nonstructural protein 3 [1] was 4.49; at Nonstructural protein 3 [7], 4.31. The pEC50 in the data set on Zika virus [3] was 5.31.

On to `CC(C)C[C@H]1C(=O)N2CCC[C@H]2[C@]2(O)O[C@](NC(=O)[C@@H]3C=C4c5cccc6[nH]c(Br)c(c56)C[C@H]4N(C)C3)(C(C)C)C(=O)N12` [BROMOCRIPTINE], for which the pIC50 against Nonstructural protein 3 [15] was 4.88.
